According to ChEMBL document CHEMBL3351986, “Probing linker design in citric acid-ciprofloxacin conjugates” (2014):
Converted amounts (≈) assume the structure as drawn. Values belong to the molecule of their own block, whether it stands above or below them. The source made the active and inactive calls. The rule behind the calls is not given here.

Key:
Staphylococcus aureus [1] = assay: Ratio of compound MIC to ciprofloxacin MIC for Staphylococcus aureus NCTC 13142 after 18 hrs by micro dilution method; format: functional
Staphylococcus aureus [2] = assay: Ratio of compound MIC to ciprofloxacin MIC for Staphylococcus aureus BIG 52 after 18 hrs by micro dilution method; format: functional
[3] = tested on: Staphylococcus epidermidis; assay: Ratio of compound MIC to ciprofloxacin MIC for Staphylococcus epidermidis NCTC 11047 after 18 hrs by micro dilution method; format: functional
[4] = tested on: Staphylococcus epidermidis; assay: Ratio of compound MIC to ciprofloxacin MIC for Staphylococcus epidermidis NCTC 2749 after 18 hrs by micro dilution method; format: functional
[5] = tested on: Staphylococcus haemolyticus; assay: Ratio of compound MIC to ciprofloxacin MIC for Staphylococcus haemolyticus NCTC 11042 after 18 hrs by micro dilution method; format: functional
Escherichia coli [6] = assay: Ratio of compound MIC to ciprofloxacin MIC for Escherichia coli NCTC 10418 after 18 hrs by micro dilution method; format: functional
Pseudomonas aeruginosa [7] = assay: Ratio of compound MIC to ciprofloxacin MIC for Pseudomonas aeruginosa environmental isolate after 18 hrs by micro dilution method; format: functional
Pseudomonas aeruginosa [8] = assay: Ratio of compound MIC to ciprofloxacin MIC for Pseudomonas aeruginosa BIG 37 clinical isolate after 18 hrs by micro dilution method; format: functional
Pseudomonas aeruginosa [9] = assay: Ratio of compound MIC to ciprofloxacin MIC for Pseudomonas aeruginosa NCTC 10662 after 18 hrs by micro dilution method; format: functional
Pseudomonas aeruginosa [10] = assay: Ratio of compound MIC to ciprofloxacin MIC for Pseudomonas aeruginosa BIG 63 after 18 hrs by micro dilution method; format: functional
Serratia marcescens [11] = assay: Ratio of compound MIC to ciprofloxacin MIC for Serratia marcescens BIG 11 NCTC 1377 after 18 hrs by micro dilution method; format: functional
Burkholderia cepacia [12] = assay: Ratio of compound MIC to ciprofloxacin MIC for Burkholderia cepacia BIG 9 NCTC 10744 after 18 hrs by micro dilution method; format: functional
Burkholderia cepacia [13] = assay: Ratio of compound MIC to ciprofloxacin MIC for Burkholderia cepacia BIG 117 after 18 hrs by micro dilution method; format: functional
Burkholderia cepacia [14] = assay: Ratio of compound MIC to ciprofloxacin MIC for Burkholderia cepacia BIG 118 after 18 hrs by micro dilution method; format: functional
Burkholderia cepacia [15] = assay: Ratio of compound MIC to ciprofloxacin MIC for Burkholderia cepacia BIG 119 after 18 hrs by micro dilution method; format: functional
Burkholderia cepacia [16] = assay: Ratio of compound MIC to ciprofloxacin MIC for Burkholderia cepacia BIG 120 after 18 hrs by micro dilution method; format: functional
[17] = tested on: Stenotrophomonas maltophilia; assay: Ratio of compound MIC to ciprofloxacin MIC for Stenotrophomonas maltophilia N1127 after 18 hrs by micro dilution method; format: functional
[18] = tested on: Stenotrophomonas maltophilia; assay: Ratio of compound MIC to ciprofloxacin MIC for Stenotrophomonas maltophilia N1124 after 18 hrs by micro dilution method; format: functional
Staphylococcus aureus [19] = assay: Antimicrobial activity against Staphylococcus aureus NCTC 13142 after 18 hrs by micro dilution method; format: functional; details: NCTC 13142, 18 h
Staphylococcus aureus [20] = assay: Antimicrobial activity against Staphylococcus aureus HG-1 after 18 hrs by micro dilution method; format: functional; details: HG-1, 18 h
Staphylococcus aureus [21] = assay: Antimicrobial activity against Staphylococcus aureus (Oxford) NCTC 6571 after 18 hrs by micro dilution method; format: functional; details: (Oxford) NCTC 6571, 18 h
Staphylococcus aureus [22] = assay: Antimicrobial activity against Staphylococcus aureus NCTC 13143 after 18 hrs by micro dilution method; format: functional; details: NCTC 13143, 18 h
Staphylococcus aureus [23] = assay: Antimicrobial activity against Staphylococcus aureus BIG 52 after 18 hrs by micro dilution method; format: functional; details: BIG 52, 18 h
[24] = tested on: Staphylococcus epidermidis; assay: Antimicrobial activity against Staphylococcus epidermidis NCTC 11047 after 18 hrs by micro dilution method; format: functional; details: NCTC 11047, 18 h
[25] = tested on: Staphylococcus epidermidis; assay: Antimicrobial activity against Staphylococcus epidermidis NCTC 2749 after 18 hrs by micro dilution method; format: functional; details: NCTC 2749, 18 h
[26] = tested on: Staphylococcus haemolyticus; assay: Antimicrobial activity against Staphylococcus haemolyticus NCTC 11042 after 18 hrs by micro dilution method; format: functional; details: NCTC 11042, 18 h
Escherichia coli [27] = assay: Antimicrobial activity against Escherichia coli NCTC 10418 after 18 hrs by micro dilution method; format: functional; details: NCTC 10418, 18 h
Escherichia coli [28] = assay: Antimicrobial activity against Escherichia coli BIG 0046 after 18 hrs by micro dilution method; format: functional; details: BIG 0046, 18 h
Pseudomonas aeruginosa [29] = assay: Antimicrobial activity against Pseudomonas aeruginosa environmental isolate BIG 39 after 18 hrs by micro dilution method; format: functional; details: BIG 39, 18 h
Pseudomonas aeruginosa [30] = assay: Antimicrobial activity against Pseudomonas aeruginosa BIG 37 clinical isolate after 18 hrs by micro dilution method; format: functional; details: BIG 37, 18 h
Pseudomonas aeruginosa [31] = assay: Antimicrobial activity against Pseudomonas aeruginosa NCTC 10662 after 18 hrs by micro dilution method; format: functional; details: NCTC 10662, 18 h
Pseudomonas aeruginosa [32] = assay: Antimicrobial activity against Pseudomonas aeruginosa BIG 63 after 18 hrs by micro dilution method; format: functional; details: BIG 63, 18 h
Serratia marcescens [33] = assay: Antimicrobial activity against Serratia marcescens BIG 11 NCTC 1377 after 18 hrs by micro dilution method; format: functional; details: BIG 11 NCTC 1377, 18 h
Burkholderia cepacia [34] = assay: Antimicrobial activity against Burkholderia cepacia BIG 9 NCTC 10744 after 18 hrs by micro dilution method; format: functional; details: BIG 9 NCTC 10744, 18 h
Burkholderia cepacia [35] = assay: Antimicrobial activity against Burkholderia cepacia BIG 117 after 18 hrs by micro dilution method; format: functional; details: BIG 117, 18 h
Burkholderia cepacia [36] = assay: Antimicrobial activity against Burkholderia cepacia BIG 118 after 18 hrs by micro dilution method; format: functional; details: BIG 118, 18 h
Burkholderia cepacia [37] = assay: Antimicrobial activity against Burkholderia cepacia BIG 119 after 18 hrs by micro dilution method; format: functional; details: BIG 119, 18 h
Burkholderia cepacia [38] = assay: Antimicrobial activity against Burkholderia cepacia BIG 120 after 18 hrs by micro dilution method; format: functional; details: BIG 120, 18 h
Burkholderia cepacia [39] = assay: Antimicrobial activity against Burkholderia cepacia BIG 121 after 18 hrs by micro dilution method; format: functional; details: BIG 121, 18 h
[40] = tested on: Stenotrophomonas maltophilia; assay: Antimicrobial activity against Stenotrophomonas maltophilia N1127 after 18 hrs by micro dilution method; format: functional; details: N1127, 18 h
[41] = tested on: Stenotrophomonas maltophilia; assay: Antimicrobial activity against Stenotrophomonas maltophilia N1124 after 18 hrs by micro dilution method; format: functional; details: N1124, 18 h
[42] = tested on: Stenotrophomonas maltophilia; assay: Antimicrobial activity against Stenotrophomonas maltophilia N1119 after 18 hrs by micro dilution method; format: functional; details: N1119, 18 h
[43] = Inhibition of DNA gyrase (unknown origin) assessed as reduction in supercoiled form of DNA at 20 uM using ethidium bromide staining by gel electrophoresis
Staphylococcus aureus [44] = assay: Ratio of compound MIC to ciprofloxacin MIC for Staphylococcus aureus (Oxford) NCTC 6571 after 18 hrs by micro dilution method; format: functional
[45] = Inhibition of DNA gyrase (unknown origin) assessed as reduction in supercoiled form of DNA at 5 to 20 uM using ethidium bromide staining by gel electrophoresis

- MIC (Staphylococcus aureus [19]): 16 µg/mL (≈ 28.4 µM)
- MIC (Staphylococcus aureus [20]): > 36 µg/mL
- MIC (Staphylococcus aureus [21]): 16 µg/mL (≈ 28.4 µM)
- MIC (Staphylococcus aureus [22]): > 36 µg/mL
- MIC (Staphylococcus aureus [23]): 16 µg/mL (≈ 28.4 µM)
- MIC [24]: 16 µg/mL (≈ 28.4 µM)
- MIC [25]: 8 µg/mL (≈ 14.2 µM)
- MIC (Escherichia coli [27]): 0.125 µg/mL (≈ 0.222 µM)
- MIC (Escherichia coli [28]): 36 µg/mL (≈ 64 µM)
- MIC (Pseudomonas aeruginosa [29]): 2 µg/mL (≈ 3.56 µM)
- MIC (Pseudomonas aeruginosa [30]): 16 µg/mL (≈ 28.4 µM)
- MIC (Pseudomonas aeruginosa [31]): 2 µg/mL (≈ 3.56 µM)
- MIC (Pseudomonas aeruginosa [32]): 8 µg/mL (≈ 14.2 µM)
- MIC (Serratia marcescens [33]): 0.5 µg/mL (≈ 0.889 µM)
- MIC (Burkholderia cepacia [34]): 8 µg/mL (≈ 14.2 µM)
- MIC (Burkholderia cepacia [35]): 8 µg/mL (≈ 14.2 µM)
- MIC (Burkholderia cepacia [36]): 8 µg/mL (≈ 14.2 µM)
- MIC (Burkholderia cepacia [37]): 32 µg/mL (≈ 56.9 µM)
- MIC (Burkholderia cepacia [38]): 32 µg/mL (≈ 56.9 µM)
- MIC (Burkholderia cepacia [39]): > 36 µg/mL
- MIC [40]: 32 µg/mL (≈ 56.9 µM)
- MIC [41]: 32 µg/mL (≈ 56.9 µM)
- MIC [42]: > 36 µg/mL
- inhibition [43]: Active
Structure (SMILES): O=C(O)CC(O)(CC(=O)NCC(=O)N1CCN(c2cc3c(cc2F)c(=O)c(C(=O)O)cn3C2CC2)CC1)C(=O)O (racemic)
- Ratio (Staphylococcus aureus [1]): 18.8
- Ratio (Staphylococcus aureus [2]): 18.8
- Ratio [3]: 75.3
- Ratio [4]: 18.8
- Ratio [5]: 75.3
- Ratio (Escherichia coli [6]): 1.23
- Ratio (Pseudomonas aeruginosa [7]): 4.72
- Ratio (Pseudomonas aeruginosa [8]): 4.7
- Ratio (Pseudomonas aeruginosa [9]): 4.72
- Ratio (Pseudomonas aeruginosa [10]): 18.8
- Ratio (Serratia marcescens [11]): 4.91
- Ratio (Burkholderia cepacia [12]): 9.4
- Ratio (Burkholderia cepacia [13]): 4.7
- Ratio (Burkholderia cepacia [14]): 18.8
- Ratio (Burkholderia cepacia [15]): 4.7
- Ratio (Burkholderia cepacia [16]): 9.4
- Ratio [17]: 9.4
- Ratio [18]: 4.7
- MIC [26]: 16 µg/mL (≈ 28.4 µM)
- Ratio (Staphylococcus aureus [44]): 37.6

Structure (SMILES): O=C(O)c1cn(C2CC2)c2cc(N3CCNCC3)c(F)cc2c1=O [CIPROFLOXACIN]
- MIC (Staphylococcus aureus [19]): 0.5 µg/mL (≈ 1.51 µM)
- MIC (Staphylococcus aureus [20]): > 36 µg/mL
- MIC (Staphylococcus aureus [21]): 0.25 µg/mL (≈ 0.754 µM)
- MIC (Staphylococcus aureus [22]): > 36 µg/mL
- MIC (Staphylococcus aureus [23]): 0.5 µg/mL (≈ 1.51 µM)
- MIC [24]: 0.125 µg/mL (≈ 0.377 µM)
- MIC [25]: 0.25 µg/mL (≈ 0.754 µM)
- MIC [26]: 0.125 µg/mL (≈ 0.377 µM)
- MIC (Escherichia coli [28]): > 36 µg/mL
- MIC (Serratia marcescens [33]): 0.06 µg/mL (≈ 0.181 µM)
- MIC (Burkholderia cepacia [34]): 0.5 µg/mL (≈ 1.51 µM)
- MIC (Burkholderia cepacia [35]): 1 µg/mL (≈ 3.02 µM)
- MIC (Burkholderia cepacia [36]): 0.25 µg/mL (≈ 0.754 µM)
- MIC (Burkholderia cepacia [37]): 4 µg/mL (≈ 12.1 µM)
- MIC (Burkholderia cepacia [38]): 2 µg/mL (≈ 6.04 µM)
- MIC (Burkholderia cepacia [39]): 8 µg/mL (≈ 24.1 µM)
- MIC [40]: 2 µg/mL (≈ 6.04 µM)
- MIC [41]: 4 µg/mL (≈ 12.1 µM)
- MIC [42]: 1 µg/mL (≈ 3.02 µM)
- inhibition [45]: Active
